Experimental findings from EPA's ToxValDB 9.5 (doi:10.2903/j.efsa.2014.3353) are described below.

Data set [1] has as its system Apis mellifera. As to conditions: acute, duration: 48 hours, mortality.
In data set [2] the test system is Bibionidae. As to conditions: chronic/long-term; duration: 28 days; development.
The subject of data set [3] is Colinus virginianus. The note with it: for LD50: acute, oral, mortality.
Data set [4] concerns Cyprinodon variegatus. The note with it: acute; duration: 96 hours; mortality.
The subject of data set [5] is Daphnia magna. As to conditions: chronic/long-term; duration: 21 days; mobility.
In data set [6] the test system is Oryctolagus sp. As to conditions: reproduction developmental; body weight.
Data set [7] has as its system Pimephales promelas. As to conditions: chronic/long-term; duration: 28 days; growth.
Data set [8] has as its system Rattus norvegicus.
The subject of data set [9] is Tagia sp. The note with it: acute; duration: 14 days; mortality.

The structures appear in SMILES notation. Bounds are passed on as bounds.

As a reminder, the NOAEL is the highest dose or exposure tested at which no adverse effect was seen. By LOAEL is commonly meant the lowest tested level that showed an adverse finding. In the case of `COc1cc(OC)nc(NC(=O)NS(=O)(=O)Nc2ccccc2C(=O)N(C)C)n1` [Orthosulfamuron], the LD50 in data set [1] (dermal) was over 100 µg/piece; in data set [3] (duration: 5 days, diet), over 936 mg/kg-day; in data set [3], over 2000 mg/kg-day; in data set [8] (acute, oral, mortality), over 5000 mg/kg-day. In addition, the LC50 in data set [1] (oral, unspecified) is over 109 µg/piece; in data set [4] it was over 123 µg/mL; in data set [9], over 1000 mg/kg. Also, the NOEC is 66.9 mg/L in [2]; 112 mg/kg-day in data set [3] (reproduction developmental, duration: 21 weeks); 10 mg/L in [5]; 6.1 mg/L in [7]. For the same compound, the NOAEL in data set [6] came out at 75 mg/kg-day; in data set [8] (chronic, duration: 2 years, other), 5 mg/kg-day; in data set [8] (reproduction developmental, mobility), 70.8 mg/kg-day; in data set [8] (reproduction developmental, other), 5 mg/kg-day. The same compound yielded an LOAEL in data set [8] (subchronic, duration: 90 days, oral, immunology) of 19 mg/kg-day.
